Reference: ChEMBL document CHEMBL3046584, “Synthesis, biological activity and docking study of some new isatin Schiff base derivatives” (2012)

Experiments:
Assay type in all cases: functional
[1] = test system: HeLa; assay: Cytotoxicity against Homo sapiens (human) HeLa cells assessed as cell viability after […] by MTT assay
[2] = test system: Raji; assay: Cytotoxicity against Homo sapiens (human) Raji cells assessed as cell viability after 72 hr by MTT assay
[3] = Cytotoxicity against Homo sapiens (human) LS180 cells assessed as cell viability after 72 hr by MTT assay; details: LS180, 72 h

SMILES | IC15 [1] | IC30 [1] | IC15 [2] | IC30 [2] | IC15 [3] | IC30 [3]
Cc1ccccc1N=C1C(=O)Nc2ccccc21 | 12.3 µM | 52.6 µM | 64.8 µM | > 100 µM | > 100 µM | > 100 µM
O=C1Nc2ccccc2/C1=N/Nc1ccc([N+](=O)[O-])cc1 | 3 µM | 12.2 µM | 17 µM | > 100 µM | 5.2 µM | 21.8 µM
O=C1Nc2ccccc2/C1=N\c1ccc(Cl)cc1 | 15.4 µM | 80.2 µM | 35.4 µM | 88.1 µM | > 100 µM | > 100 µM
O=C1Nc2ccccc2/C1=N/c1cccc2ccccc12 | 15.8 µM | 55.9 µM | 48.8 µM | > 100 µM | 20.8 µM | > 100 µM
Cc1nc(Cl)cc(/N=C2\C(=O)Nc3ccccc32)n1 | 17.4 µM | > 100 µM | > 100 µM | > 100 µM | > 100 µM | > 100 µM
O=C1Nc2ccccc2/C1=N/c1ccc(Cl)cn1 | 21.6 µM | 65.1 µM | > 100 µM | > 100 µM | > 100 µM | > 100 µM
O=C1Nc2ccccc2/C1=N/c1nc2ccccc2[nH]1 | 43.2 µM | > 100 µM | 15.6 µM | > 100 µM | > 100 µM | > 100 µM
O=C1Nc2ccccc2/C1=N/c1nc(Cl)cs1 | 3.2 µM | 35.9 µM | 57.3 µM | > 100 µM | > 100 µM | > 100 µM
Cc1conc1/N=C1\C(=O)Nc2ccccc21 | 49.6 µM | > 100 µM | 30.1 µM | > 100 µM | > 100 µM | > 100 µM
